Laboratory results reported in US9944618B2, “Inhibiting neurotransmitter reuptake” (Mayo Foundation for Medical Education and Research, priority 2013, dated 2018).

Experiments:
[1] = biological target: human norepinephrine transporter (Homo sapiens (Human), UniProt P23975); assay: Human NET (norepinephrine transporter) uptake assay; format: cell-based; details: read-out: hNET Ki
Outline: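 HEK293F cells transfected with human NET were thawed, plated at about 60,000 cells/well and held at 37 °C for at least 3 h. Compounds came from 10 mM DMSO stocks, with nomifensine as control, in 1×HBSS/0.02 M HEPES. Uptake was followed with a neurotransmitter transporter dye, dosed as % of vendor reconstitution, in triplicate.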

[2] = biological target: human dopamine transporter (Homo sapiens (Human), UniProt Q01959); assay: Human DAT (dopamine transporter) uptake assay; format: cell-based; details: read-out: hDAT Ki
human dopamine transporter, sequence (Q01959 whole entry): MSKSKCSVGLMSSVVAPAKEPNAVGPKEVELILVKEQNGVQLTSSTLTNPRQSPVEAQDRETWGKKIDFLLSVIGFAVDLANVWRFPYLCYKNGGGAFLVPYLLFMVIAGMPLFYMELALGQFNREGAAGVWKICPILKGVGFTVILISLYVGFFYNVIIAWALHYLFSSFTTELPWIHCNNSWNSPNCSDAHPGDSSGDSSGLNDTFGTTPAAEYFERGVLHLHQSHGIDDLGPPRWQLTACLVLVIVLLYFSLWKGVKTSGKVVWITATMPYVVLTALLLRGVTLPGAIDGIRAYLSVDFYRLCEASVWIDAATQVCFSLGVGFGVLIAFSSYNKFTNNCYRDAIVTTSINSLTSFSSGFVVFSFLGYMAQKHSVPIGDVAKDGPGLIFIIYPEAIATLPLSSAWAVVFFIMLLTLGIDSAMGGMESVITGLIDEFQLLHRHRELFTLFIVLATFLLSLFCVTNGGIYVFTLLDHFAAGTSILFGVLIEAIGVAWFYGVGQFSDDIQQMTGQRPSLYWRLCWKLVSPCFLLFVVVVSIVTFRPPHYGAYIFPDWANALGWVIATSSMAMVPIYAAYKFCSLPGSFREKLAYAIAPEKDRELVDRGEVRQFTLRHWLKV
Outline: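 Uptake inhibition was measured in HEK293F cells transfected with human DAT, plated at ~60,000 cells/well and settled ≥3 h at 37 °C. Compounds came from 10 mM DMSO stocks. Read-out was uptake of a fluorescent neurotransmitter transporter dye in HBSS with 0.02 M HEPES, with dye level given as % of vendor reconstitution; n=3.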

[3] = biological target: human serotonin transporter (Homo sapiens (Human), UniProt P31645); assay: Human SERT (serotonin transporter) uptake assay; format: cell-based; details: read-out: hSERT Ki
human serotonin transporter, sequence (P31645 whole entry): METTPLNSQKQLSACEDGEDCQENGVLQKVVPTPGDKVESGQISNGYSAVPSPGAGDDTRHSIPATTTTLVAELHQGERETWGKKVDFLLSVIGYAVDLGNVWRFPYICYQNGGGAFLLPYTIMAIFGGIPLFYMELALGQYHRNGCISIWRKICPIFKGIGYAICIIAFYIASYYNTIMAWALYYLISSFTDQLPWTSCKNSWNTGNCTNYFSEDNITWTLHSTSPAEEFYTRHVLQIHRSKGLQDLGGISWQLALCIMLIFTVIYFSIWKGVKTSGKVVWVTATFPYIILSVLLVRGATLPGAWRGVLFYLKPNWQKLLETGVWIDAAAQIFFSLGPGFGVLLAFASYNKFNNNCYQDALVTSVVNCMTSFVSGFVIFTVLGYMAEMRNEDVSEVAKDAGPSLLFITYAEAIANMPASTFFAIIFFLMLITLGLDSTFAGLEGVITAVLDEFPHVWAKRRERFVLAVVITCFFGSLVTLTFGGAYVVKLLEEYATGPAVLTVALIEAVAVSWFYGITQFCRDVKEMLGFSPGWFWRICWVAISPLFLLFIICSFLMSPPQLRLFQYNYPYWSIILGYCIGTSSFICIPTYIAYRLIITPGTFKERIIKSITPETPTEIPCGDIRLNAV
Outline: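 HEK293F cells transfected with human SERT, about 60,000 per well, settled for ≥3 h at 37° C before compound addition. Uptake was followed with a fluorescent transporter dye in HBSS with 0.02 M HEPES. Background came from 10 μM fluoxetine, nomifensine was the control, n=3.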

[4] = biological target: hERG (Homo sapiens (Human), UniProt Q12809); assay: Human ERG (hERG) assay, hERG currents in hERG-expressing CHO cells; format: cell-based; details: hERG-expressing CHO cells
hERG, sequence (Q12809 whole entry): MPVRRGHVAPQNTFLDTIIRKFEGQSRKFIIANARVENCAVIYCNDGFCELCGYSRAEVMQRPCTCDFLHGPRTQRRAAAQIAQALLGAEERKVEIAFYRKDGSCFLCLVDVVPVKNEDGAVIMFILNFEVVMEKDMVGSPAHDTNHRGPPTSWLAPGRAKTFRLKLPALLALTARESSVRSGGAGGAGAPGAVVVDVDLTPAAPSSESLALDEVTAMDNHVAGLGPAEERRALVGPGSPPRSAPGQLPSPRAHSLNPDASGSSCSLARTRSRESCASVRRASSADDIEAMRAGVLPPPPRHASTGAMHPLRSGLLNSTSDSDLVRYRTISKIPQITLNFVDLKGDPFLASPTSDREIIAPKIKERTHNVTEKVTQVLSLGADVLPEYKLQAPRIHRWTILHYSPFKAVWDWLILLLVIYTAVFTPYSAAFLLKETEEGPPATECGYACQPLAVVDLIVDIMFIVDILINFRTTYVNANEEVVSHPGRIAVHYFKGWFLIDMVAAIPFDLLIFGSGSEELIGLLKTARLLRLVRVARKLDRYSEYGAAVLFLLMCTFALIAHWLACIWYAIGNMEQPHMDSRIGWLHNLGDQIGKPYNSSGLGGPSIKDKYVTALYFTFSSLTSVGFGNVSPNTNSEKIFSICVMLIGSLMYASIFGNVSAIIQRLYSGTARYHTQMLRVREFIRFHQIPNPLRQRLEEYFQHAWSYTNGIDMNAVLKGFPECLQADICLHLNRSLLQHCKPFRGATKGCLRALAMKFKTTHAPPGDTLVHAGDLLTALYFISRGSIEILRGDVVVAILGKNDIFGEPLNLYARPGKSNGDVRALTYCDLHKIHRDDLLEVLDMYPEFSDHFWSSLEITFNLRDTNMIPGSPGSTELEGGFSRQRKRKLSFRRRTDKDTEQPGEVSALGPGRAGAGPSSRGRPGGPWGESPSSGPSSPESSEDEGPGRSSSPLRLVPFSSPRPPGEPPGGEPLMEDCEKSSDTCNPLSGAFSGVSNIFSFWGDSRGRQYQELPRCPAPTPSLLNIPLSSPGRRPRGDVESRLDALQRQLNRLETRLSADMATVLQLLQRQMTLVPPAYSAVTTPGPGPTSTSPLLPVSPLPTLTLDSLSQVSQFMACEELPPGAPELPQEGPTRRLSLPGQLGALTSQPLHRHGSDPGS
From the text: The voltage-dependent potassium channel encoded by the human ether-a-go-go-related gene (hERG) is believed to play a key role in repolarisation of the ventricular cardiac action potential. Changes in its activity, caused either by inherited mutations of the gene sequence or pharmacological modification, can lead to prolongation of action potential duration. This can lead to prolongation of the QT interval recorded in man on an electrocardiogram and to a potentially fatal cardiac arrhythmia known as Torsades de Pointes.
hERG currents were recorded from hERG-expressing CHO cells. The biophysical and pharmacological characterization of the hERG currents in these cells was performed.

[5] = biological target: CYP3A4 (Homo sapiens (Human), UniProt P08684); assay: Cytochrome P450 inhibition assay, recombinant CYP3A4 (BFC substrate); format: in vitro ADME; details: recombinant enzyme
CYP3A4, sequence (P08684 whole entry): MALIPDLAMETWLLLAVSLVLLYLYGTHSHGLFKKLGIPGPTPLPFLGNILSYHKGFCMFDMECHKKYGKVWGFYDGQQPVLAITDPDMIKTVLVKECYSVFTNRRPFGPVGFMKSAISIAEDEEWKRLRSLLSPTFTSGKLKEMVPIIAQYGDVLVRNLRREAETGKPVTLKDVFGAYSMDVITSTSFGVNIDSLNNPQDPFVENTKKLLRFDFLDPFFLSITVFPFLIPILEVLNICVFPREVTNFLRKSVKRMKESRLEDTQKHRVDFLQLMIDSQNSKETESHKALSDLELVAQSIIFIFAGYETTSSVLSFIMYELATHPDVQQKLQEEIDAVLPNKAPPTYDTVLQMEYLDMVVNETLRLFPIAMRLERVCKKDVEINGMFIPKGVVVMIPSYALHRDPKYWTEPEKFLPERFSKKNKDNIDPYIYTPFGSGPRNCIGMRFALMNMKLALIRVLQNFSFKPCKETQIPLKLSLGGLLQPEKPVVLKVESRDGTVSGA

[6] = biological target: CYP2D6 (Homo sapiens (Human), UniProt P10635); assay: Cytochrome P450 inhibition assay, recombinant CYP2D6 (MAMC substrate); format: in vitro ADME; details: recombinant enzyme
CYP2D6, sequence (P10635 whole entry): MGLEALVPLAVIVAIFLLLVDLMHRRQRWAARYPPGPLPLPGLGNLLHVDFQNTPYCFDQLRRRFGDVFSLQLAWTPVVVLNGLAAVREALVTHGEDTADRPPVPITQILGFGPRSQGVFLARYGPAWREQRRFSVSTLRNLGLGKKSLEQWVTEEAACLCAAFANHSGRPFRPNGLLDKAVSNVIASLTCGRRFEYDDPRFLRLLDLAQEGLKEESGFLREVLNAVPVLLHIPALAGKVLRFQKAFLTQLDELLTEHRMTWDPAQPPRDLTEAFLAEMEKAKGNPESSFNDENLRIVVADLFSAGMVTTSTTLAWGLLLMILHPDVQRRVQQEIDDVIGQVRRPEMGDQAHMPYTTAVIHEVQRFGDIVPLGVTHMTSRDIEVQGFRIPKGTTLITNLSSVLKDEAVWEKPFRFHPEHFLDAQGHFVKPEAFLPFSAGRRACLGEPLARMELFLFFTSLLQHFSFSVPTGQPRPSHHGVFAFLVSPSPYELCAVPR

[7] = pKa of basic centres (Table 1); format: physicochemical; details: first base, e.g., an aliphatic primary, secondary, or tertiary amine; for pKa: read-out: pKa (Base 1)

human norepinephrine transporter, sequence (P23975 whole entry): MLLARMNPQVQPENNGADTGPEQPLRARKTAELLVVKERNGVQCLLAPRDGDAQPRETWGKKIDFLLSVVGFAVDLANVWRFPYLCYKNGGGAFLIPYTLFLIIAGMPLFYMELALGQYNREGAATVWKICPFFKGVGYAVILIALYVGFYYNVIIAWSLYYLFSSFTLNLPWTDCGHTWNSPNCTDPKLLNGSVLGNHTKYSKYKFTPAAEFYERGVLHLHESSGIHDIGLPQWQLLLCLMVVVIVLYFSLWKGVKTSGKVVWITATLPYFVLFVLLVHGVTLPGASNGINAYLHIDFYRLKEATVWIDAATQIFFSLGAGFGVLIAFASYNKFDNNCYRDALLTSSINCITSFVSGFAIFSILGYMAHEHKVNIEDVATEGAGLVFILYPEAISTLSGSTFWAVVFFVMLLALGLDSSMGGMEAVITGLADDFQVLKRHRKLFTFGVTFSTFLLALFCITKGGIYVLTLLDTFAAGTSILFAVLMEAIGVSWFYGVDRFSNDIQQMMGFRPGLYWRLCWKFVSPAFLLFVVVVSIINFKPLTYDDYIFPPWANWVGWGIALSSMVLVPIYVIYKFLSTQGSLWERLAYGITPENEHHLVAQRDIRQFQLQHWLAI

| SMILES | Ki [1] | Ki [2] | Ki [3] | IC50 [4] | IC50 [5] | IC50 [6] | pKa [7] | pKa (Base 1) [7] |
| --- | --- | --- | --- | --- | --- | --- | --- | --- |
| CNC[C@H](c1ccc2ccccc2c1)[C@H](F)c1ccccc1 [Compound 9] | 1.5 nM | 42.3 nM | 5.7 nM | 9500 nM | 8600 nM | 210 nM | 9.4 | – |
| CNC[C@H](c1ccc(Cl)c(Cl)c1)[C@H](O)c1cccc(Br)c1 [Compound 76] | 11.9 nM | 21.2 nM | 222 nM | 3000 nM | 3600 nM | 140 nM | 9.4 | – |
| CNC[C@H](c1ccc2ccccc2c1)[C@H](O)c1ccc2c(c1)OCCO2 [Compound 143] | 6.6 nM | 106 nM | 7.9 nM | 15000 nM | 7600 nM | 160 nM | 9.7 | – |
| CNC[C@H](c1ccc2ccccc2c1)[C@@H](O)c1ccccc1F [Compound 60] | 5.3 nM | 83.2 nM | 10.7 nM | 28000 nM | 20000 nM | 560 nM | 9.7 | – |
| CNC[C@@H](Cc1ccc(C)s1)c1ccc2ccccc2c1 [Compound 44] | 3.3 nM | 74.1 nM | 12.2 nM | 3300 nM | 8000 nM | 1000 nM | 10 | – |
| CNC[C@H](c1ccc2ccccc2c1)[C@H](OCC(=O)N1CCOCC1)c1ccccc1 [Compound 23] | 2 nM | 65.6 nM | 5.6 nM | 21000 nM | 20000 nM | 4900 nM | 9.6 | – |
| CNCC(Cc1ccccc1O)c1ccc2ccccc2c1 (stereo not drawn) [Compound 69] | 9 nM | 21.9 nM | 21.2 nM | 9500 nM | 20000 nM | 510 nM | – | 10 |
| CNC[C@H](c1ccc(Cl)c(Cl)c1)[C@@H](O)c1cccc(I)c1 [Compound 165] | 38.6 nM | 118 nM | 341 nM | 3800 nM | 2900 nM | 81 nM | 9.4 | – |
| CNC[C@@H](c1ccc2ccccc2c1)[C@@H](O)c1ccc2c(c1)OCCO2 (racemic) [Compound 145] | 10.9 nM | 134 nM | 9.4 nM | 11000 nM | 19000 nM | 310 nM | 9.7 | – |
| CNC[C@H](c1ccc2ccccc2c1)[C@@H](F)c1ccccc1 [Compound 11] | 1.6 nM | 11.1 nM | 4.2 nM | 11000 nM | 6700 nM | 96 nM | 9.4 | – |
| CNC[C@@H](c1ccc2ccccc2c1)[C@H](O)c1ccccc1F [Compound 96] | 36.8 nM | 158 nM | 9.9 nM | 33000 nM | 20000 nM | 1100 nM | 9.7 | – |
| CNC[C@H](c1ccc(Cl)c(Cl)c1)[C@@H](O)c1ccccc1 [Compound 70] | 9.5 nM | 48.5 nM | 142 nM | 31000 nM | 20000 nM | 220 nM | 9.4 | – |
| CNC[C@@H](c1ccc(Cl)c(Cl)c1)[C@H](O)c1cccc(NC(C)=O)c1 [Compound 98] | 38.8 nM | 216 nM | 167 nM | 33000 nM | 20000 nM | 850 nM | 9.4 | – |
| CNCC(c1ccc(Br)c(Cl)c1)[C@H](O)c1ccccc1 (stereo partly drawn) [Compound 16] | 1.8 nM | 6.6 nM | 6.3 nM | 5000 nM | 19000 nM | 230 nM | 9.4 | – |
| CNC[C@H](c1ccc2ccccc2c1)[C@H](OCC(=O)NC1CC1)c1ccccc1 [Compound 13] | 1.6 nM | 19.7 nM | 5.4 nM | 19000 nM | 17000 nM | 400 nM | 9.6 | – |
